Measurements taken from patent publication US20250171461A1, “STIMULATOR OF INTERFERON GENES (STING) MODULATORS, AND COMPOSITIONS AND METHODS THEREOF” (Geode Therapeutics Inc., priority 2022, published 2025).

These compounds were tested against T1, human HAQ STING isoform (hSTING HAQ) (Homo sapiens, UniProt Q86WV6, G230A/H232R/R293Q/R71H) (assay: IFN-β mRNA level in THP1 cells (qPCR, STING agonist cellular activity)). Details: compound at 3.6 μM, 2 hrs, IFNβ expression normalized against GAPDH by the 2^-ΔΔCT method, DMSO = 1.0.
T1 construct: THP1 cells express the naturally occurring human HAQ STING isoform (hSTING HAQ); host or cells: THP1
T1 sequence (Q86WV6 whole entry R71H/G230A/H232R/R293Q, canonical isoform): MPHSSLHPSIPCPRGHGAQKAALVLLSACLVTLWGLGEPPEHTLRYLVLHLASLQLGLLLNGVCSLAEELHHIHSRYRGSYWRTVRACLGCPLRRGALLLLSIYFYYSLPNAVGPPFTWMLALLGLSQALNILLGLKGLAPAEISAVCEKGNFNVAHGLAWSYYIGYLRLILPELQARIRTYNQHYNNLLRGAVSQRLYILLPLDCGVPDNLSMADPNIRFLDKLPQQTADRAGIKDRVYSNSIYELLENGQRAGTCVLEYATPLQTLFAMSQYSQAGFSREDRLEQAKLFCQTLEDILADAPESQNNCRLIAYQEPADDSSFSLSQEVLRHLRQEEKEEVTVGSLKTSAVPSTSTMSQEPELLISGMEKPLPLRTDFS
Format: cell-based
Procedure: Cellular activity of STING agonists was determined by mRNA levels of IFN-β in THP1 (Otwo Biotech HTX1621) cell line. THP1 cells express the naturally occurring human HAQ STING isoform (hSTING HAQ), which responses to the activation of STING agonists.
THP1 cells were seeded into Falcon 12-well cell Culture Plate (Corning #353043) at 9×10^5 cells per well, in 1 ml complete culture medium (RPMI-1640, GIBCO #C1187500BT) containing 10% heat inactivated FBS (GIBCO #10099141C), 1% Pen-Strep (HyClone SV30010) and incubated at 37° ΔC, 5% CO2 overnight. On day 2, compound (final concentration at 3.6 μM) or DMSO (0.1%, Sigma Aldrich #8418) was added to THP1 cells and further incubated for 2 hrs min at 37° ΔC, 5% CO2. Cells were then collected for RNA extraction.
Total RNA was extracted with TRIzol reagent (Invitrogen #15596026) and […] was used to synthesize first-strand cDNA with Maxima First Strand cDNA Synthesis Kit (TAKARA #RR036A). Quantitative PCR was performed with Maxima SYBR Green qPCR Master Mix (ABI #4367659, USA). The primer sequences used were as follows: GAPDH (5′-[…]-3′, 5′-[…]-3′). INFP3 (5′-[…]-3′,5′-[…]-3′) Real-time PCR was performed on QuantStudio™ 5 Real-Time PCR System (Thermo Fisher). Relative expression levels of IFNβ gene were normalized against the level of GAPDH expression by the 2^−ΔΔCT method. Each PCR reaction was performed in triplicates.
With `CCN1CCN(c2c(F)cc3c(=O)c(CN(Cc4ccnc(OC)c4)[C@H]4CCCN(c5ccc(N)nc5)C4)cn4c3c2OCC4)CC1` [Compound 93, (S)-6-(((1-(6-aminopyridin-3-yl)piperidin-3-yl)((2-methoxypyridin-4-yl)methyl)amino)methyl)-10-(4-ethylpiperazin-1-yl)-9-fluoro-2,3-dihydro-7H-[1,4]oxazino[2,3,4-ij]quinolin-7-one] the “Relative mRNA INFβ/GAPDH THP 1” value was 411.3.
In the case of `COc1cc(CN(Cc2cn3c4c(c(F)c(F)cc4c2=O)OCC3)[C@H]2CCCN(c3ccc(C)nc3)C2)ccn1` [Compound 80, (S)-9,10-difluoro-6-((((2-methoxypyridin-4-yl)methyl)(1-(6-methylpyridin-3-yl)piperidin-3-yl)amino)methyl)-2,3-dihydro-7H-[1,4]oxazino[2,3,4-ij]quinolin-7-one], the “Relative mRNA INFβ/GAPDH THP 1” value is reported as 6820.3.
In the case of `COc1cc(CN(Cc2cn3c4c(c(N5CCN(C)CC5)c(F)cc4c2=O)OCC3)[C@H]2CCCN(c3ccc(N)nc3)C2)ccn1` [Compound 94, (S)-6-(((1-(6-aminopyridin-3-yl)piperidin-3-yl)((2-methoxypyridin-4-yl)methyl)amino)methyl)-9-fluoro-10-(4-methylpiperazin-1-yl)-2,3-dihydro-7H-[1,4]oxazino[2,3,4-ij]quinolin-7-one], the “Relative mRNA INFβ/GAPDH THP 1” value is reported as 248.8.
In the case of `COc1cc(CN(Cc2cn3c4c(c(F)c(F)cc4c2=O)OC[C@H]3C)[C@H]2CCCN(c3ccc(N)nc3)C2)ccn1` [Compound 5, (R)-6-((((S)-1-(6-aminopyridin-3-yl)piperidin-3-yl)((2-methoxypyridin-4-yl)methyl)amino)methyl)-9,10-difluoro-3-methyl-2H-[1,4]oxazino[2,3,4-ij]quinolin-7(3H)-one], the “Relative mRNA INFβ/GAPDH THP 1” value is reported as 1627.5.
For `COc1cc(CN(Cc2cn3c4c(c(F)c(F)cc4c2=O)OCC3C)[C@H]2CCCN(c3ccc(N)nc3)C2)c(Cl)cn1` (stereo partly drawn) [Compound 4, 6-((((S)-1-(6-aminopyridin-3-yl)piperidin-3-yl)((5-chloro-2-methoxypyridin-4-yl)methyl)amino)methyl)-9,10-difluoro-3-methyl-2H-[1,4]oxazino[2,3,4-ij]quinolin-7(3H)-one], the “Relative mRNA INFβ/GAPDH THP 1” value was 587.4.
With `COc1cc(CN(Cc2cn3c4c(c(OC)c(F)cc4c2=O)OCC3C)[C@H]2CCCN(c3ccc(N)nc3)C2)ccn1` (stereo partly drawn) [Compound 103, 6-((((S)-1-(6-aminopyridin-3-yl)piperidin-3-yl)((2-methoxypyridin-4-yl)methyl)amino)methyl)-9-fluoro-10-methoxy-3-methyl-2,3-dihydro-7H-[1,4]oxazino[2,3,4-ij]quinolin-7-one] the “Relative mRNA INFβ/GAPDH THP 1” value was 356.0.
In the case of `COc1cc(CN(Cc2cn3c4c(c(F)c(F)cc4c2=O)OCC3C)[C@H]2CCCN(c3cnc4[nH]ncc4c3)C2)ccn1` (stereo partly drawn) [Compound 54, 6-((((S)-1-(1H-pyrazolo[3,4-b]pyridin-5-yl)piperidin-3-yl)((2-methoxypyridin-4-yl)methyl)amino)methyl)-9,10-difluoro-3-methyl-2H-[1,4]oxazino[2,3,4-ij]quinolin-7(3H)-one], the “Relative mRNA INFβ/GAPDH THP 1” value is reported as 3.9.
`COc1cc(CN(Cc2cn3c4c(c(N5CC6CC(F)(F)CC6C5)c(F)cc4c2=O)OCC3C)[C@H]2CCCN(c3ccc(N)nc3)C2)ccn1` (stereo partly drawn) [Compound 46, 6-((((S)-1-(6-aminopyridin-3-yl)piperidin-3-yl)((2-methoxypyridin-4-yl)methyl)amino)methyl)-10-(5,5-difluorohexahydrocyclopenta[c]pyrrol-2(1H)-yl)-9-fluoro-3-methyl-2H-[1,4]oxazino[2,3,4-ij]quinolin-7(3H)-one] was tested, and the “Relative mRNA INFβ/GAPDH THP 1” value was 691.4.
In the case of `Cc1cc(CN(Cc2cn3c4c(c(F)c(F)cc4c2=O)OCC3)[C@H]2CCCN(c3cnccn3)C2)ccn1` [Compound 83, (S)-9,10-difluoro-6-((((2-methylpyridin-4-yl)methyl)(1-(pyrazin-2-yl)piperidin-3-yl)amino)methyl)-2,3-dihydro-7H-[1,4]oxazino[2,3,4-ij]quinolin-7-one], the “Relative mRNA INFβ/GAPDH THP 1” value is reported as 1.2.
In the case of `CNC1CCCN(c2c(F)cc3c(=O)c(CN(Cc4ccnc(OC)c4)[C@H]4CCCN(c5ccc(N)nc5)C4)cn4c3c2OCC4C)C1.Cl` (stereo partly drawn) [Compound 42, 6-((((S)-1-(6-aminopyridin-3-yl)piperidin-3-yl)((2-methoxypyridin-4-yl)methyl)amino)methyl)-9-fluoro-3-methyl-10-(3-(methylamino)piperidin-1-yl)-2H-[1,4]oxazino[2,3,4-ij]quinolin-7(3H)-one Hydrochloride], the “Relative mRNA INFβ/GAPDH THP 1” value is reported as 12.1.
For `COc1cc(CN(Cc2cn3c4c(c(F)c(F)cc4c2=O)OC(C)(C)C3)[C@H]2CCCN(c3ccc(N)nc3)C2)ccn1` [Compound 50, (S)-6-(((1-(6-aminopyridin-3-yl)piperidin-3-yl)((2-methoxypyridin-4-yl)methyl)amino)methyl)-9,10-difluoro-2,2-dimethyl-2H-[1,4]oxazino[2,3,4-ij]quinolin-7(3H)-one], the “Relative mRNA INFβ/GAPDH THP 1” value was 6723.5.
For `COc1cc(CN(Cc2cn3c4c(c(N5C[C@@H](C)N[C@@H](C)C5)c(F)cc4c2=O)OCC3C)[C@H]2CCCN(c3ccc(N)nc3)C2)ccn1` (stereo partly drawn) [Compound 35, 6-((((S)-1-(6-aminopyridin-3-yl)piperidin-3-yl)((2-methoxypyridin-4-yl)methyl)amino)methyl)-10-((3S,5R)-3,5-dimethylpiperazin-1-yl)-9-fluoro-3-methyl-2H-[1,4]oxazino[2,3,4-ij]quinolin-7(3H)-one], the “Relative mRNA INFβ/GAPDH THP 1” value was 3791.8.
For `COc1cc(CN(Cc2cn3c4c(c(N5CCNC(C)C5)c(F)cc4c2=O)OCC3C)[C@H]2CCCN(c3ccc(N)nc3)C2)ccn1` (stereo partly drawn) [Compound 40, 6-((((S)-1-(6-aminopyridin-3-yl)piperidin-3-yl)((2-methoxypyridin-4-yl)methyl)amino)methyl)-9-fluoro-3-methyl-10-(3-methylpiperazin-1-yl)-2H-[1,4]oxazino[2,3,4-ij]quinolin-7(3H)-one], the “Relative mRNA INFβ/GAPDH THP 1” value was 352.8.
In the case of `N#Cc1cc(CN(Cc2cn3c4c(c(F)c(F)cc4c2=O)OCC3)[C@H]2CCCN(c3cnccn3)C2)ccn1` [Compound 89, (S)-4-((((9,10-difluoro-7-oxo-2,3-dihydro-7H-[1,4]oxazino[2,3,4-ij]quinolin-6-yl)methyl)(1-(pyrazin-2-yl)piperidin-3-yl)amino)methyl)picolinonitrile], the “Relative mRNA INFβ/GAPDH THP 1” value is reported as 1.3.
In the case of `COc1cc(CN(Cc2cn3c4c(c(F)c(F)cc4c2=O)OCC3C)[C@H]2CCN(c3ccc(N)nc3)C2)ccn1` (stereo partly drawn) [Compound 15, 6-((((S)-1-(6-aminopyridin-3-yl)pyrrolidin-3-yl)((2-methoxypyridin-4-yl)methyl)amino)methyl)-9,10-difluoro-3-methyl-2H-[1,4]oxazino[2,3,4-ij]quinolin-7(3H)-one], the “Relative mRNA INFβ/GAPDH THP 1” value is reported as 5.8.
In the case of `Cc1cc(CN(Cc2cn3c4c(c(F)c(F)cc4c2=O)OCC3)[C@H]2CCCN(c3ccc(N)nc3)C2)cc(C)c1F` [Compound 78, (S)-6-(((1-(6-aminopyridin-3-yl)piperidin-3-yl)(4-fluoro-3,5-dimethylbenzyl)amino)methyl)-9,10-difluoro-2,3-dihydro-7H-[1,4]oxazino[2,3,4-ij]quinolin-7-one], the “Relative mRNA INFβ/GAPDH THP 1” value is reported as 1.2.
`COc1cc(CN(Cc2cn3c4c(c(N(C)C5CCCNC5)c(F)cc4c2=O)OCC3C)[C@H]2CCCN(c3ccc(N)nc3)C2)ccn1.Cl` (stereo partly drawn) [Compound 43, 6-((((S)-1-(6-aminopyridin-3-yl)piperidin-3-yl)((2-methoxypyridin-4-yl)methyl)amino)methyl)-9-fluoro-3-methyl-10-(methyl(piperidin-3-yl)amino)-2H-[1,4]oxazino[2,3,4-ij]quinolin-7(3H)-one Hydrochloride] was tested, and the “Relative mRNA INFβ/GAPDH THP 1” value was 1.2.
With `Cc1ccc(N2CCC[C@H](N(Cc3ccnc(C)c3)Cc3cn4c5c(c(OCCO)c(F)cc5c3=O)OCC4C)C2)cn1` (stereo partly drawn) [Compound 101, 9-fluoro-10-(2-hydroxyethoxy)-3-methyl-6-((((S)-1-(6-methylpyridin-3-yl)piperidin-3-yl)((2-methylpyridin-4-yl)methyl)amino)methyl)-2,3-dihydro-7H-[1,4]oxazino[2,3,4-ij]quinolin-7-one] the “Relative mRNA INFβ/GAPDH THP 1” value was 332.9.
With `COc1cc(CN(Cc2cn3c4c(c(N5CCOCC5)c(F)cc4c2=O)OCC3C)[C@H]2CCCN(c3ccc(N)nc3)C2)ccn1` (stereo partly drawn) [Compound 27, 6-((((S)-1-(6-aminopyridin-3-yl)piperidin-3-yl)((2-methoxypyridin-4-yl)methyl)amino)methyl)-9-fluoro-3-methyl-10-morpholino-2H-[1,4]oxazino[2,3,4-ij]quinolin-7(3H)-one] the “Relative mRNA INFβ/GAPDH THP 1” value was 372.4.
In the case of `COc1cc(CN(Cc2cn3c4c(c(N5CCNCC5C)c(F)cc4c2=O)OCC3C)[C@H]2CCCN(c3ccc(N)nc3)C2)ccn1` (stereo partly drawn) [Compound 41, 6-((((S)-1-(6-aminopyridin-3-yl)piperidin-3-yl)((2-methoxypyridin-4-yl)methyl)amino)methyl)-9-fluoro-3-methyl-10-(2-methylpiperazin-1-yl)-2H-[1,4]oxazino[2,3,4-ij]quinolin-7(3H)-one], the “Relative mRNA INFβ/GAPDH THP 1” value is reported as 1.2.
